# Measured values as given in patent US11998516B2, “Methods and compositions for treating depression using cyclobenzaprine” (TONIX PHARMA HOLDINGS LIMITED, priority 2011, dated 2024).
# Key:
# fibromyalgia patients = settings: 10 to 40 mg over a 12-week period; cited from earlier work
# [1] = system: patients with fibromyalgia
# Method: Hospital Anxiety and Depression Scale (HAD). The Hospital Anxiety and Depression Scale (HAD) is a widely used patient self-rated scale with 14 questions (7 “anxiety” and 7 “depression” questions) that ranges from 0-42.
# The HAD Depression Subscale score was also analyzed.
# [2] = 1-4 mg at bedtime, week 8, p=0.012
# [3] = 1-4 mg at bedtime, week 8, p=0.017
compound,measurement,setting,value
"CN(C)CCC=C1c2ccccc2C=Cc2ccccc21 [cyclobenzaprine, 3-(5H-dibenzo[a,d]cyclohepten-5-ylidene)-N,N-dimethyl-1-propanamine]",muscle tightness,fibromyalgia patients,reduction
same,pain score,fibromyalgia patients,significantly improved
same,quality of sleep,fibromyalgia patients,significantly improved
same,total number of tender points,fibromyalgia patients,reduction
same,HAD depression subscale at week 8,"[1]; 1-4 mg at bedtime, week 8",4.9
same,"decrease (improvement) of HAD score, baseline to week 8",[1]; [2],3.3
same,"percent decrease of HAD score, baseline to week 8",[1]; [2],24.1%
same,"decrease (improvement) of HAD depression subscale, baseline to week 8",[1]; [3],1.4
same,"percent decrease of HAD depression subscale, baseline to week 8",[1]; [3],22.2%
same,HAD score at week 8,"[1]; 1-4 mg at bedtime, week 8, scale range 0-42",10.4
same,HAD depression subscale at baseline,"[1]; fibromyalgia patients, before treatment",6.3
same,HAD score at baseline,"[1]; fibromyalgia patients, before treatment, scale range 0-42",13.7
same,comparison of change from baseline in HAD scale versus placebo,"[1]; week 8, VLD CBP vs placebo groups",did not reveal a significant effect
same,comparison of change from baseline in HAD Depression subscore versus placebo,"[1]; week 8, VLD CBP vs placebo groups, p=0.023",significant improvement
